# From patent publication US5202348A, “Thiarubrine antifungal agents” (The University of British Columbia, priority 1990, dated 1993)
# Read-outs that look alike come from different tables or passages of the source.
# Tests used:
# [1] = test system: L1210; experiment: Growth inhibition of L1210 during 24 hours exposure; format: cell-based, Mouse; conditions: Mus musculus, L1210, 24 h, read-out: Concentration causing 50% growth inhibition
# Description: (§1) L1210 = Mouse lymphocytic leukemia
# (§2) Doses inhibiting growth in 50% were estimated by plotting concentration o
# (§3) a logarithmic scale and percent of growth inhibition for 24 hours exposur
# (§4) on a probability scale.
# [2] = as above; format: cell-based, Mouse; conditions: mouse, l1210 cells; Table 2; read-out: Toxicity Index, LC50 L1210 / C. albicans
# Description: as §1, §2, §3, §4
# [3] = test system: 3T3; experiment: Growth inhibition of 3T3 during 24 hours exposure; format: cell-based, Mouse; conditions: Mus musculus, NIH3T3, 24 h, read-out: Concentration causing 50% growth inhibition
# Description: (§5) 3T3 = Mouse fibroblasts
# as §2, §3, §4
# [4] = Growth inhibition of 3T3 during 24 hours exposure; format: cell-based, Mouse; conditions: mouse, 3t3 cells; Table 2; read-out: Toxicity Index, LC50 3T3 / LC50 C. albicans
# Description: as §5, §2, §3, §4
# [5] = test system: P815; experiment: Growth inhibition of P815 mastocytoma during 24 hours exposure; format: cell-based, Mouse
# Description: (§6) P815 = Mouse mastocytoma […]
# as §3, §4
# [6] = as above; format: cell-based, Mouse; conditions: mouse, p815 cells
# Description: as §6, §3, §4
# [7] = test system: E. coli; experiment: Growth inhibition of E. coli during 24 hours exposure; format: cell-based, Escherichia coli; conditions: Escherichia coli, 24 h, read-out: Minimal concentration causing 50% growth inhibition
# Description: as §2, §3, §4
# [8] = test system: Hycobacteria sp.; conditions: cited from earlier work
# [9] = test system: P. aeruginosa; experiment: Growth inhibition of P. aeruginosa during 24 hours exposure; format: cell-based, Pseudomonas aeruginosa; conditions: Pseudomonas aeruginosa, 24 h
# Description: as §2, §3, §4
# [10] = test system: Candida; experiment: Anti-Candida activity (summary); format: cell-based; conditions: Table 14;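 also: Letter grades where Y means active and y means less active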
# [11] = test system: WEHI-3; experiment: Growth inhibition of WEHI-3 during 24 hours exposure; format: cell-based, Mouse; conditions: Mus musculus, WEHI-3, 24 h, read-out: Concentration causing 50% growth inhibition
# Description: (§7) WEHl3 = Mouse myelomonocyte
# as §2, §3, §4
# [12] = as above; format: cell-based, Mouse; conditions: mouse, wehi-3 cells; Table 2; read-out: Toxicity Index, LC50 WEHI-3 / LC50 C. albicans
# Description: as §7, §2, §3, §4
# [13] = test system: P815 mastocytoma; experiment: LC50 (24 hrs.), doses required to inhibit growth in 50%, different method; format: cell-based; conditions: Mus musculus, P815, 24 h, read-out: LC50 (24 hrs.), dose required to inhibit growth in 50%
# [14] = test system: Bacillus subtilis; conditions: cited from earlier work
# [15] = test system: Aspergillus fumigatus; experiment: Sensitivity of Aspergillus fumigatus, agar diffusion method; format: cell-based; conditions: read-out: Zone of Growth Inhibition
# From the text: Results were obtained by agar diffusion method. Disc diameter - 6 mm. -* = no zone over disc diameter.
# [16] = test system: Coenorhabditis elogans; conditions: cited from earlier work
# [17] = test system: Aspergillus fumigatus; conditions: concentrations comparable to those of amphotericin B; cited from earlier work
# [18] = test system: Aspergillus; experiment: Anti-Aspergillus activity (summary); format: cell-based; conditions: Table 14;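 also: Letter grades where Y means active and y means less active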
# [19] = test system: Sindbis virus; conditions: only in presence of UV-A radiation; cited from earlier work
# [20] = test system: mouse cells; conditions: cited from earlier work
# [21] = test system: bacteriophage M13; conditions: cited from earlier work
# [22] = test system: bacteriophage T4; conditions: in UV-A only; cited from earlier work
# [23] = test system: E. coli; experiment: Growth inhibition of E. coli during 24 hours exposure; format: cell-based, Escherichia coli; conditions: Escherichia coli, 24 h, read-out: Minimal concentration causing 100% growth inhibition
# [24] = test system: murine cytomegalovirus and Sindbis virus; conditions: phototoxic activity; cited from earlier work
# [25] = test system: C. albicans; experiment: Growth inhibition of C. albicans during 24 hours exposure; format: cell-based, Candida albicans; conditions: Candida albicans, 24 h
# Description: as §2, §3, §4
# [26] = test system: bacteria; experiment: Anti-bacterial activity (summary); format: cell-based; conditions: Table 14
# [27] = test system: C. albicans; experiment: Growth inhibition of C. albicans during 24 hours exposure; format: cell-based, Candida albicans; conditions: Candida albicans, 24 h, read-out: Minimal concentration causing 100% growth inhibition
# [28] = test system: Candida albicans; conditions: concentrations comparable to those of amphotericin B; cited from earlier work
# [29] = test system: C. albicans; experiment: LC50 (24 hrs.), doses required to inhibit growth in 50%, different method; format: cell-based, Candida albicans; conditions: Candida albicans, 24 h, read-out: LC50 (24 hrs.), dose required to inhibit growth in 50%
# From the text: Doses Required to Inhibit Growth of C. albicans
# in 50% During 24 hrs. (ng/ml)
# [30] = test system: Escherichia coli; conditions: cited from earlier work
# [31] = test system: murine cytomegalovirus; conditions: only in presence of UV-A radiation; cited from earlier work
# [32] = read-out: Minimal concentration causing 50% growth inhibition
structure (smiles),measurement,setting,value
"C=CC#CC#CC1=CC=C(C#CC)SS1 [Thiarubrine A, 3 - (1- -propynyl) 6 (5-hexen-3-yn-1-ynyl)1,2-dithiacyclohexa-3,5-diene]",IC50,[1],0.035 µg/mL
same,selectivity ratio at 24 h,[2],1
same,IC50,[3],0.45 µg/mL
same,selectivity ratio at 24 h,[4],12
same,"Ratio of concentration needed to inhibit growth in 50%, P815 vs C. albicans","[5]; 50% growth inhibition, Table 4",the same
same,IC50,"[5]; Mus musculus, P815, 24 h, read-out: Concentration causing 50% growth inhibition",0.035 µg/mL
same,IC50,"[5]; Mus musculus, P815, 24 h, read-out: Minimal concentration causing 50% growth inhibition",0.035 µg/mL
same,IC100,"[5]; Mus musculus, P815, 24 h, read-out: Minimal concentration causing 100% growth inhibition",0.625 µg/mL
same,selectivity ratio at 24 h,"[6]; 100% growth inhibition, Table 3, read-out: Ratio of minimal concentration causing 100% growth inhibition, P815 line vs C. albicans",~4
same,selectivity ratio at 24 h,"[6]; Table 2, read-out: Toxicity Index, LC50 P815 / LC50 C. albicans",1
same,IC50,[7],0.18 µg/mL
same,Cytotoxic activity,[8],cytotoxic activity
same,IC50,[9]; [32],0.68 µg/mL
same,MIC,[9]; read-out: Minimal concentration causing 100% growth inhibition,2.5 µg/mL
same,Anti-Candida,[10],Y
same,IC50,[11],0.027 µg/mL
same,selectivity ratio at 24 h,[12],1
same,IC50,[13],0.081 µg/mL
same,Cytotoxic activity,[14],cytotoxic activity
same,zone of inhibition at 0.01 µg/disc,[15],8 mm
same,zone of inhibition at 0.1 µg/disc,[15],19 mm
same,zone of inhibition at 1 µg/disc,[15],27 mm
same,zone of inhibition at 10 µg/disc,[15],27 mm
same,Cytotoxic activity,[16],cytotoxic activity
same,Antifungal activity,[17],strong antifungal activity
same,Anti-Aspergillus,[18],Y
same,Sensitivity of virus,[19],extremely sensitive
same,Sensitivity of mouse cells,[20]; in presence of UV-A,moderately sensitive
same,Sensitivity of mouse cells,[20]; in the dark,somewhat less sensitive
same,Effect on bacteriophage,[21],completely unaffected
same,Effect on bacteriophage,[22],slightly affected
same,MIC,[23],0.625 µg/mL
same,Order of potency,[24],alpha-terthienyl thiarubrine-A > phenylheptatriyne > ACBP-thiophene > thiophene-A
same,IC50,[25]; read-out: Concentration causing 50% growth inhibition,0.028 µg/mL
same,IC50,[25]; [32],0.028 µg/mL
same,Anti-bacterial,[26],Y
same,MIC,[27],0.16 µg/mL
same,Antifungal activity,[28],strong antifungal activity
same,IC50,[29],0.04 µg/mL
same,Cytotoxic activity,[30],cytotoxic activity
same,Sensitivity of virus,[31],extremely sensitive
